In ChEMBL document CHEMBL1156513, “Pharmacologic inhibition of tpl2 blocks inflammatory responses in primary human monocytes, synoviocytes, and blood” (J Biol Chem, 2007):
Active and inactive are the calls of the source. The rule behind the calls is not given here.

Legend:
[1] = target: Mitogen-activated protein kinase kinase kinase 8 (Homo sapiens, UniProt P41279); test: Inhibition of human Tpl2 by ELISA
[2] = (§1) Inhibition of LPS-induced MEK phosphorylation in primary human monocytes by immunoblot analysis; assay type: cell-based
[3] = (§2) Inhibition of LPS-induced ERK phosphorylation in primary human monocytes by immunoblot analysis; assay type: cell-based
[4] = system: HeLa; test: Inhibition of TNF-alpha-induced ERK phosphorylation in human HeLa cells by immunoblot analysis; assay type: functional, cell-based
[5] = Inhibition of TNF-alpha-stimulated PGE2 production in human RA-FLS cells by immunoblot analysis; assay type: functional, cell-based
[6] = target: Stromelysin-1 (Homo sapiens, UniProt P08254); test: Inhibition of IL-1-beta-stimulated MMP3 in human RA-FLS cells by immunoblot analysis; assay type: cell-based
Stromelysin-1, sequence (P08254 whole entry): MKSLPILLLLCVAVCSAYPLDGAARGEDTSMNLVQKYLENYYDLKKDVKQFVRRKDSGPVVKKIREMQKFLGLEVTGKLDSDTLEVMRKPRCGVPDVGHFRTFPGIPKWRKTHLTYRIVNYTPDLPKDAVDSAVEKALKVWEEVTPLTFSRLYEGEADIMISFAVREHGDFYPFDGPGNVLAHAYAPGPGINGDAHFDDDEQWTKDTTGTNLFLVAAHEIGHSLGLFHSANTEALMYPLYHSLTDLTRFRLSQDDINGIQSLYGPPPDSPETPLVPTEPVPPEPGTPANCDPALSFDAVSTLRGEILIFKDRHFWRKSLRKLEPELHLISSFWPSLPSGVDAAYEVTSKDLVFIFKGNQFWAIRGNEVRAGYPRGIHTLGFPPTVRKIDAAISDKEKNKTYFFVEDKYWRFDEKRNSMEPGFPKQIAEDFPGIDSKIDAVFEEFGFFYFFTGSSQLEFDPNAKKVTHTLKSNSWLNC

[7] = target: Dual specificity mitogen-activated protein kinase kinase 1 (Oryctolagus cuniculus, UniProt P29678); test: Inhibition of rabbit MEK1 by ELISA
Dual specificity mitogen-activated protein kinase kinase 1, sequence (P29678 whole entry): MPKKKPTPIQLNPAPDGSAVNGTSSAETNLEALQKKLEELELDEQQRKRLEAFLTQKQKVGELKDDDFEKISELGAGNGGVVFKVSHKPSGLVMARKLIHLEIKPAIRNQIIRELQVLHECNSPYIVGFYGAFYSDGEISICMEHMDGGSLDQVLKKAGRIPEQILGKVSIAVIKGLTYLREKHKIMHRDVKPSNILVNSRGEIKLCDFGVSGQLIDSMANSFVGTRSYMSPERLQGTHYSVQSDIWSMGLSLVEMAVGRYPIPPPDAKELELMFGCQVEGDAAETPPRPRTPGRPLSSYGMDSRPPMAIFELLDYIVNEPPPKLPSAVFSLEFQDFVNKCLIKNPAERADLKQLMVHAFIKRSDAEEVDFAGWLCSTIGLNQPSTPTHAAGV

[8] = target: Mitogen-activated protein kinase 14 (Homo sapiens, UniProt Q16539); test: Inhibition of human p38alpha by ELISA
Mitogen-activated protein kinase 14, sequence (Q16539 whole entry): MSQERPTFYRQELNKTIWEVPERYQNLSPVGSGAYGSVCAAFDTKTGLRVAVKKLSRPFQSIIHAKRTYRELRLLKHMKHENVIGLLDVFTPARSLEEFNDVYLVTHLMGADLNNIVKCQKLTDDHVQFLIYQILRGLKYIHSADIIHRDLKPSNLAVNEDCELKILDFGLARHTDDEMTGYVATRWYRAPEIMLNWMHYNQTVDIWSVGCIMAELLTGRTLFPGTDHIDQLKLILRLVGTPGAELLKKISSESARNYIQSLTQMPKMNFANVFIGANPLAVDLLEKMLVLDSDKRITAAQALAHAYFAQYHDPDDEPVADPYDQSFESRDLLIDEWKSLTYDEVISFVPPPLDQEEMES

[9] = target: Proto-oncogene tyrosine-protein kinase Src (Homo sapiens, UniProt P12931); test: Inhibition of human Src by ELISA
Proto-oncogene tyrosine-protein kinase Src, sequence (P12931 2-536 limits assumed): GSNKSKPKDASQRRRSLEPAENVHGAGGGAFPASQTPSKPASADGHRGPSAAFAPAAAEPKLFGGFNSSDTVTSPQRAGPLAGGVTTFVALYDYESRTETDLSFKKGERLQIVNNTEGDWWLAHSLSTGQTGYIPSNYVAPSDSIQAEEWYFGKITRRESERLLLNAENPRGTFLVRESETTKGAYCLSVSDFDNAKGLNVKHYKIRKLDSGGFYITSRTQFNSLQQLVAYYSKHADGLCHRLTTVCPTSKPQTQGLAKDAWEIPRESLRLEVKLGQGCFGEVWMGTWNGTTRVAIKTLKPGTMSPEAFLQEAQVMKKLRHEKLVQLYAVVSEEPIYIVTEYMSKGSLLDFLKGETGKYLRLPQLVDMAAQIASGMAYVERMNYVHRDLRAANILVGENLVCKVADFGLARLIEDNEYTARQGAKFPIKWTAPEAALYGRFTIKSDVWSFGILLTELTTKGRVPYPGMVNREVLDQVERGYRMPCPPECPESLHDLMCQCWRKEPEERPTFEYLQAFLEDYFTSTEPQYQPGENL

[10] = Inhibition of human CaMK2 by ELISA
[11] = Inhibition of human PKA by scintiplate assay
[12] = target: Protein kinase C alpha type (Homo sapiens, UniProt P17252); test: Inhibition of human PKCalpha by scintiplate assay
[13] = target: T1, MAP kinase-activated protein kinase 2 (Homo sapiens, UniProt P49137); test: Inhibition of human MK2 by scintiplate assay
Target sequence in this assay (P49137 whole entry): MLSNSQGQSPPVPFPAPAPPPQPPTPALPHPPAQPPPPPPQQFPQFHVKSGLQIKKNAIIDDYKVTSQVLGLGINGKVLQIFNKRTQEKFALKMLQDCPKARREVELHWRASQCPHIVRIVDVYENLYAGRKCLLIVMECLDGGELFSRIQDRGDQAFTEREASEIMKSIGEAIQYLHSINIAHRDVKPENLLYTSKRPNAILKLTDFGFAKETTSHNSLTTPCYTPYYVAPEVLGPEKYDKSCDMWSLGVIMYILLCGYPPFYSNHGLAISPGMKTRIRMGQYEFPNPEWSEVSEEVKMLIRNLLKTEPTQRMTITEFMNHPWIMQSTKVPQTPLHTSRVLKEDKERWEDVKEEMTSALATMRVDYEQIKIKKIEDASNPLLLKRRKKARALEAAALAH

[14] = Inhibition of human S6K by scintiplate assay
[15] = Inhibition of human JNK1alpha by scintiplate assay
[16] = target: T2, Dual specificity mitogen-activated protein kinase kinase 6 (Homo sapiens, UniProt P52564); test: Inhibition of human MKK6 by ELISA
T2 sequence (P52564 whole entry): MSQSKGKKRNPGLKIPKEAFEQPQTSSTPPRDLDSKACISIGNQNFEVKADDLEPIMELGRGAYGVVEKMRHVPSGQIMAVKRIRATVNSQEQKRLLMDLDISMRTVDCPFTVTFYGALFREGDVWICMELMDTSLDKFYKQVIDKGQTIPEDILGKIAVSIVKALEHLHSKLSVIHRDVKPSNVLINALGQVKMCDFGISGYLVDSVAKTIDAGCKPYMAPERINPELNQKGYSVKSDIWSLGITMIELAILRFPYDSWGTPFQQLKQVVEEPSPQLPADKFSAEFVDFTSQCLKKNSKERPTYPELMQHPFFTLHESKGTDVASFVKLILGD

[17] = target: T3, Inhibitor of nuclear factor kappa-B kinase subunit beta (Homo sapiens, UniProt O14920); test: Inhibition of human IKK-beta by ELISA
T3 sequence (O14920 whole entry): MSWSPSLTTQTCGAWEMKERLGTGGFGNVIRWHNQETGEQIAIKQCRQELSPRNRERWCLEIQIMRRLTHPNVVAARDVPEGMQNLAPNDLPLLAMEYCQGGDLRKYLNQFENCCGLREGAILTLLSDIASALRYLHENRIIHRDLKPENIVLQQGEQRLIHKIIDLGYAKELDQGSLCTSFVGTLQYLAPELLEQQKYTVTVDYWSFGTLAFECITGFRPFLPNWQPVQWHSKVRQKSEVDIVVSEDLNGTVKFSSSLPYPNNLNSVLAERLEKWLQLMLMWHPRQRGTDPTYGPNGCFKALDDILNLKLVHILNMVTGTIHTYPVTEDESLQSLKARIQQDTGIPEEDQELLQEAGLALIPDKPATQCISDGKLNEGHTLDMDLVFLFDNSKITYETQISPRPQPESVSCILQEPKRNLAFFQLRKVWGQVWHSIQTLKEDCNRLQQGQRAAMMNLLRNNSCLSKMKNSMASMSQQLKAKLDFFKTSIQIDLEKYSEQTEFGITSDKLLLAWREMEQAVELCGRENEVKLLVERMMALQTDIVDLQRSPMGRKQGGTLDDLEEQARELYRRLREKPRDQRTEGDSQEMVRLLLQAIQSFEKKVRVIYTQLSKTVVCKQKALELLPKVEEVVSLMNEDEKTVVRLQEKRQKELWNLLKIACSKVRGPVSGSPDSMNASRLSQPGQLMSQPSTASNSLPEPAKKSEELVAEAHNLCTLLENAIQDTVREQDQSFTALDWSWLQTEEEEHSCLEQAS

[18] = target: RAF proto-oncogene serine/threonine-protein kinase (Homo sapiens, UniProt P04049); test: Inhibition of human Raf1
RAF proto-oncogene serine/threonine-protein kinase, sequence (P04049 whole entry): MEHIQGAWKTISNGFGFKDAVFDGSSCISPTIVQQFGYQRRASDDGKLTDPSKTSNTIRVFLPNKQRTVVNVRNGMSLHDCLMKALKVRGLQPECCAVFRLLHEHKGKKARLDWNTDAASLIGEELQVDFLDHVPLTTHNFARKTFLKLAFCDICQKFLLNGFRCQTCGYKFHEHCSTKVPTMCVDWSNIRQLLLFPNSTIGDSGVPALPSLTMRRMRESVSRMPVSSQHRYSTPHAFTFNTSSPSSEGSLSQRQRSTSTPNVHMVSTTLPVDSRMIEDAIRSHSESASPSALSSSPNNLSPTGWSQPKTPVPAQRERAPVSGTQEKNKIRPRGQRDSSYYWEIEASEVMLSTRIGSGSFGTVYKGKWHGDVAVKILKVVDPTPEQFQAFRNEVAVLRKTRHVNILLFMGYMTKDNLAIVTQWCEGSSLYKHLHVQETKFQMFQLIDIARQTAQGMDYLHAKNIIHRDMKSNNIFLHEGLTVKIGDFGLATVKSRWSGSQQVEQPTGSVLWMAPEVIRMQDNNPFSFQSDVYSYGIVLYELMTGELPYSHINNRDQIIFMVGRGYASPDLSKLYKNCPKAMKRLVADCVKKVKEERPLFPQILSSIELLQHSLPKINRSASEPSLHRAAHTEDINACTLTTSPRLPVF

[19] = system: HeLa; test: Inhibition of IL8 production in human Tpl2 expressing HeLa cells after 17 hrs by ELISA; assay type: functional, cell-based
[20] = system: HeLa; test: Inhibition of human MEK phosphorylation in Tpl2 transfected HeLa cells; assay type: cell-based
[21] = system: HeLa; test: Inhibition of human ERK phosphorylation in Tpl2 transfected HeLa cells; assay type: cell-based
[22] = system: HeLa; test: Cytotoxicity against human HeLa cells; assay type: functional, cell-based
[23] = target: MAP kinase p38 (Homo sapiens) (UniProt O15264+Q15759+Q16539+P53778); test: Inhibition of LPS-induced p38 phosphorylation in primary human monocytes upto 5 uM by immunoblot analysis; assay type: cell-based
[24] = target: T1, MAP kinase-activated protein kinase 2; test: Inhibition of LPS-induced MK2 phosphorylation in primary human monocytes upto 5 uM by immunoblot analysis; assay type: cell-based
Target sequence in this assay (P49137 whole entry, looked up): as the sequence (P49137 whole entry) above

[25] = species on record: Homo sapiens; test: Inhibition of LPS-induced c-Jun phosphorylation in primary human monocytes upto 5 uM by immunoblot analysis; assay type: cell-based
[26] = target: T4, NF-kappa-B inhibitor alpha (Homo sapiens) (UniProt P25963); test: Inhibition of LPS-induced IkappaBalpha phosphorylation in primary human monocytes upto 5 uM by immunoblot analysis; assay type: cell-based
T4 sequence (whole entry): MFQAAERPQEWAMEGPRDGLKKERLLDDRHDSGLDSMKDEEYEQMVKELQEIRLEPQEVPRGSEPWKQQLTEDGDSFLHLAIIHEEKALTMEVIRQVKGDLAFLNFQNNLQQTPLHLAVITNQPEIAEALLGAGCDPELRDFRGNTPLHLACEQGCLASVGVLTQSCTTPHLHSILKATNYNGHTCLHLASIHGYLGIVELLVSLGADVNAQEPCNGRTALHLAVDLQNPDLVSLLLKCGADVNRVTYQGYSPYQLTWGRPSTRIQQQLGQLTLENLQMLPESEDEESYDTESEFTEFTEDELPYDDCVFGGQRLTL

[27] = species on record: Homo sapiens; test: Effect on ERK activation in LPS-induced tpl2-/- mouse peritoneal macrophages
[28] = system: HEK293; test: Inhibition of TNF-induced NF-kappaB activation in HEK293 cells upto 10 uM by luciferase assay; assay type: cell-based; conditions: Homo sapiens
[29] = system: HEK293; test: Inhibition of IL-1-beta-induced NF-kappaB activation in HEK293 cells upto 10 uM by luciferase assay; assay type: cell-based; conditions: Homo sapiens
[30] = species on record: Homo sapiens; test: Inhibition of PMA-induced MEK phosphorylation in primary human monocytes by immunoblot analysis; assay type: cell-based
[31] = species on record: Homo sapiens; test: Inhibition of PMA-induced ERK phosphorylation in primary human monocytes by immunoblot analysis; assay type: cell-based
[32] = system: Monocyte; test: Inhibition of LPS-induced TNFalpha production in primary human monocytes; assay type: functional, cell-based
[33] = system: Monocyte; test: Inhibition of IL-1-beta-induced TNFalpha production in primary human monocytes; assay type: functional, cell-based
[34] = system: Monocyte; test: (§3) Inhibition of LPS-induced IL12p40 production in primary human monocytes; assay type: functional, cell-based
[35] = system: Monocyte; test: (§4) Inhibition of IL-1-beta-induced IL12p40 production in primary human monocytes at 5 uM; assay type: functional, cell-based
[36] = system: Monocyte; test: as §3; assay type: functional
[37] = system: Monocyte; test: as §4; assay type: functional
[38] = system: Blood; test: Inhibition of LPS-induced TNFalpha production in human blood; assay type: functional, tissue-based
[39] = system: Blood; test: Inhibition of IL-1-beta-induced TNFalpha production in human blood; assay type: functional, tissue-based
[40] = Cytotoxicity against primary human monocytes at 5 uM; assay type: cell-based; conditions: monocyte
[41] = Inhibition of IL-1-beta-induced MEK phosphorylation in primary human monocytes by immunoblot analysis; assay type: cell-based
[42] = Inhibition of IL-1-beta-induced ERK phosphorylation in primary human monocytes by immunoblot analysis; assay type: cell-based
[43] = species on record: Mus musculus; test: Effect on IL-1-beta-induced ERK phosphorylation in 129S5 mouse thioglycollate elicited peritoneal macrophages
[44] = Inhibition of IL-1-beta-stimulated ERK phosphorylation in shuman RA-FLS cells by immunoblot analysis; assay type: cell-based; conditions: Homo sapiens
[45] = system: RA-FLS; test: Inhibition of IL-1-beta-stimulated COX2 expression in human RA-FLS cells after 4 hrs by immunoblot analysis; assay type: functional, cell-based
[46] = system: RA-FLS; test: Inhibition of IL-1-beta-stimulated PGE2 production in human RA-FLS cells after 4 hrs by ELISA; assay type: functional, cell-based
[47] = Cytotoxicity against human RA-FLS cells at =< 10 uM; assay type: cell-based
[48] = Inhibition of IL-1-beta-stimulated IL6 production in human RA-FLS cells by immunoblot analysis; assay type: functional, cell-based
[49] = Inhibition of IL-1-beta-stimulated IL8 production in human RA-FLS cells by immunoblot analysis; assay type: functional, cell-based
[50] = Inhibition of IL-1-beta-stimulated PGE2 production in human RA-FLS cells by immunoblot analysis; assay type: functional, cell-based
[51] = Inhibition of IL-1-beta-stimulated MMP1 in human RA-FLS cells by immunoblot analysis; assay type: functional, cell-based
[52] = system: HeLa; test: Inhibition of TNF-alpha-induced IL8 production in human HeLa cells after 4 hrs; assay type: functional, cell-based
[53] = species on record: Homo sapiens; test: as §1; assay type: cell-based
[54] = species on record: Homo sapiens; test: as §2; assay type: cell-based

Mitogen-activated protein kinase kinase kinase 8, sequence (P41279 whole entry): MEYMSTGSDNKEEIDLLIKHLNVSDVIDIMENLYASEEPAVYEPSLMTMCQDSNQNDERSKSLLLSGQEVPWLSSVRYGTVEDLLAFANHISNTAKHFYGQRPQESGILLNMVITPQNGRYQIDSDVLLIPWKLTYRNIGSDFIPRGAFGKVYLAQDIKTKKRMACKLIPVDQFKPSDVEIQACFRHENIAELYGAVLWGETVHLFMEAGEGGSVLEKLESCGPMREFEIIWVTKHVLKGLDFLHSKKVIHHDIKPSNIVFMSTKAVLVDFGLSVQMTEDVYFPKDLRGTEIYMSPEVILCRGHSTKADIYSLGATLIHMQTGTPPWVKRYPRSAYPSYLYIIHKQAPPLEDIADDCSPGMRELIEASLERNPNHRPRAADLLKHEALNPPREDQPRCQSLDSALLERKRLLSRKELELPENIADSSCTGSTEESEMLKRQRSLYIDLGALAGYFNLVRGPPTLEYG

C[C@@H](Nc1cc2c(Nc3ccc(F)c(Cl)c3)c(C#N)cnc2cn1)c1ccccc1
IC50 [1]: 0.016 µM | IC50 [2]: ≤ 1 µM | IC50 [3]: ≤ 1 µM

N#Cc1cnc2c(Cl)cc(NCc3cnc[nH]3)cc2c1Nc1ccc(F)c(Cl)c1
IC50 [4]: 2.5 µM | IC50 [5]: 0.7 µM | IC50 [6]: 2.3 µM | IC50 [1]: 0.012 µM | IC50 [7]: > 40 µM | IC50 [8]: > 100 µM | IC50 [9]: > 100 µM | IC50 [10]: 23 µM | IC50 [11]: > 100 µM | IC50 [12]: > 100 µM | IC50 [13]: 48 µM | IC50 [14]: > 100 µM | IC50 [15]: 65 µM | IC50 [16]: > 100 µM | IC50 [17]: 73 µM | IC50 [18]: > 100 µM | IC50 [19]: 1 µM | Activity [20]: Active | Activity [21]: Active | Activity [22]: inactive | IC50 [2]: 0.5 µM | IC50 [3]: 0.1 µM | Activity [23]: inactive | Activity [24]: inactive | Activity [25]: inactive | Activity [26]: inactive | Activity [27]: inactive | Activity [28]: inactive | Activity [29]: inactive | Activity [30]: inactive | Activity [31]: inactive | IC50 [32]: 0.6 µM | IC50 [33]: 0.7 µM | IC50 [34]: > 5 µM | IC50 [35]: > 5 µM | inhibition (INH) [36]: 39% | inhibition at 5 µM [37]: 30% | IC50 [38]: 5.4 µM | IC50 [39]: 7.2 µM | Activity [40]: Non-toxic | IC50 [41]: 0.5 µM | IC50 [42]: 0.3 µM | Activity [43]: Dose-dependent effect | IC50 [44]: 0.3 µM | Activity [45]: Active | Activity [46]: Active | Activity [47]: Non-toxic | IC50 [48]: 6.9 µM | IC50 [49]: 7.9 µM | IC50 [50]: 0.4 µM | IC50 [51]: 4 µM | IC50 [52]: 0.2 µM

C[C@H](Nc1cc2c(Nc3ccc(F)c(Cl)c3)c(C#N)cnc2cn1)c1ccccc1
Activity [53]: inactive | Activity [54]: inactive
